Experimental data from patent US20210228545A1, “METHODS OF TREATING CONDITIONS RELATED TO THE S1P1 RECEPTOR” (Arena Pharmaceuticals, Inc., priority 2018, published 2021).

What was measured:
CYP enzymes = assay: Metabolism-dependent inhibition of CYP enzymes in human liver microsomes; type: in vitro ADME; details: 30 min preincubation with NADPH-regenerating system
Excerpt: Known metabolism-dependent and/or direct inhibitors of CYP and UGT enzymes were included as positive controls, as applicable.

OATP1B1 = biological target: T1, OATP1B1 (Homo sapiens, UniProt Q9Y6L6); assay: Transporter inhibition, HEK293 cells
T1 sequence (Q9Y6L6 1-691): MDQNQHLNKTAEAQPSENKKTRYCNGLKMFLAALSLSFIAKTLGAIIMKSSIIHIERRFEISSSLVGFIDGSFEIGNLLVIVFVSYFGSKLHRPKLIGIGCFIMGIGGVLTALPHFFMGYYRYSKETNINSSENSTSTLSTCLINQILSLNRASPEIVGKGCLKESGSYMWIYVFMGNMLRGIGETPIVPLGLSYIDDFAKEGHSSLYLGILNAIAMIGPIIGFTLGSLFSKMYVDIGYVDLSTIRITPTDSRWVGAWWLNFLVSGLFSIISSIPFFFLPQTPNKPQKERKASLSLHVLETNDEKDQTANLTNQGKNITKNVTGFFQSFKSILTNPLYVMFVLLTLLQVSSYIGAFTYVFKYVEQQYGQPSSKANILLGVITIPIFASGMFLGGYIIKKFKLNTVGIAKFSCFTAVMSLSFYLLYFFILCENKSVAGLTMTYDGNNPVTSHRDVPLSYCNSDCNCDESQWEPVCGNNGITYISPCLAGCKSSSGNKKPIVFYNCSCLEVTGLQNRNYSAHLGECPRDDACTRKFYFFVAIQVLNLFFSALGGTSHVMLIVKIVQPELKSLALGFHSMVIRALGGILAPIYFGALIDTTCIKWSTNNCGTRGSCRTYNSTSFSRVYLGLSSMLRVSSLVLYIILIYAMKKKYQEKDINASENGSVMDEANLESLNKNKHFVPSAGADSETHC

MATE2-K = biological target: T2, MATE2-K (Homo sapiens, UniProt Q86VL8); assay: Transporter inhibition, HEK293 cells; type: in vitro ADME
T2 construct: expressed in transfected cells; host or cells: HEK293
T2 sequence (Q86VL8 1-566 isoform Q86VL8-3): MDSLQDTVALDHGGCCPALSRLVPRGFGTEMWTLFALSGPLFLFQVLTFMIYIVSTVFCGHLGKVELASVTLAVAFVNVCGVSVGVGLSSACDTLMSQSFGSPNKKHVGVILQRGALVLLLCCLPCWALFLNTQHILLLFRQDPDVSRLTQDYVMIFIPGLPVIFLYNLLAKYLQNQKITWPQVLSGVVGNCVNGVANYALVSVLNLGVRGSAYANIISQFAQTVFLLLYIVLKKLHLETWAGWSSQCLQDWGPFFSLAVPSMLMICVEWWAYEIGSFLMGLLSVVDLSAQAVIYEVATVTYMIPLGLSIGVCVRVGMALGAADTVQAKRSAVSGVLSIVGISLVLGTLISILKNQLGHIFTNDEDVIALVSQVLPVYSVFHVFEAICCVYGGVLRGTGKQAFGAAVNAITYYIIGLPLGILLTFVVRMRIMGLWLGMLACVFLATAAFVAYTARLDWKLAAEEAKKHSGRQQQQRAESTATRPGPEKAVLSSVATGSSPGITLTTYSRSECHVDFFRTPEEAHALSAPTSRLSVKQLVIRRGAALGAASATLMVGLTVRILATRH

OAT1 = biological target: T3, OAT1 (Homo sapiens, UniProt Q4U2R8); assay: Transporter substrate evaluation, HEK293 cells; type: in vitro ADME; details: 1 and 10 μM
T3 construct: expressed in transfected cells; host or cells: HEK293
T3 sequence (Q4U2R8 1-563): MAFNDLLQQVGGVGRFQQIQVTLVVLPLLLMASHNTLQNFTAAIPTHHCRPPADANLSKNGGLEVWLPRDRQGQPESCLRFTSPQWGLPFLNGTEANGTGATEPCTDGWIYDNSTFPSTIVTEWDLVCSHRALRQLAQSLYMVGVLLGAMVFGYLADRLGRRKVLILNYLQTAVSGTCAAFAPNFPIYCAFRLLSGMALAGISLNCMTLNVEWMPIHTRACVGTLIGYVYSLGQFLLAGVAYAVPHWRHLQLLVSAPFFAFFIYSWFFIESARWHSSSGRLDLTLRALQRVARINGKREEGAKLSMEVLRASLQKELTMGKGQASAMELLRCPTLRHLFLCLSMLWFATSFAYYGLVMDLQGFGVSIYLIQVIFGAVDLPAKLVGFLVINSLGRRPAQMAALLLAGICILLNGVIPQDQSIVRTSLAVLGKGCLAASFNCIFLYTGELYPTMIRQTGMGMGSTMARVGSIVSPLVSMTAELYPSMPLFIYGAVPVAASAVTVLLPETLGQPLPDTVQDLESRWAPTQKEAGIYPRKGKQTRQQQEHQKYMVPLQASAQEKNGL

P-gp = P-gp (Homo sapiens, UniProt P08183)
Chain of P-gp (P08183 whole entry): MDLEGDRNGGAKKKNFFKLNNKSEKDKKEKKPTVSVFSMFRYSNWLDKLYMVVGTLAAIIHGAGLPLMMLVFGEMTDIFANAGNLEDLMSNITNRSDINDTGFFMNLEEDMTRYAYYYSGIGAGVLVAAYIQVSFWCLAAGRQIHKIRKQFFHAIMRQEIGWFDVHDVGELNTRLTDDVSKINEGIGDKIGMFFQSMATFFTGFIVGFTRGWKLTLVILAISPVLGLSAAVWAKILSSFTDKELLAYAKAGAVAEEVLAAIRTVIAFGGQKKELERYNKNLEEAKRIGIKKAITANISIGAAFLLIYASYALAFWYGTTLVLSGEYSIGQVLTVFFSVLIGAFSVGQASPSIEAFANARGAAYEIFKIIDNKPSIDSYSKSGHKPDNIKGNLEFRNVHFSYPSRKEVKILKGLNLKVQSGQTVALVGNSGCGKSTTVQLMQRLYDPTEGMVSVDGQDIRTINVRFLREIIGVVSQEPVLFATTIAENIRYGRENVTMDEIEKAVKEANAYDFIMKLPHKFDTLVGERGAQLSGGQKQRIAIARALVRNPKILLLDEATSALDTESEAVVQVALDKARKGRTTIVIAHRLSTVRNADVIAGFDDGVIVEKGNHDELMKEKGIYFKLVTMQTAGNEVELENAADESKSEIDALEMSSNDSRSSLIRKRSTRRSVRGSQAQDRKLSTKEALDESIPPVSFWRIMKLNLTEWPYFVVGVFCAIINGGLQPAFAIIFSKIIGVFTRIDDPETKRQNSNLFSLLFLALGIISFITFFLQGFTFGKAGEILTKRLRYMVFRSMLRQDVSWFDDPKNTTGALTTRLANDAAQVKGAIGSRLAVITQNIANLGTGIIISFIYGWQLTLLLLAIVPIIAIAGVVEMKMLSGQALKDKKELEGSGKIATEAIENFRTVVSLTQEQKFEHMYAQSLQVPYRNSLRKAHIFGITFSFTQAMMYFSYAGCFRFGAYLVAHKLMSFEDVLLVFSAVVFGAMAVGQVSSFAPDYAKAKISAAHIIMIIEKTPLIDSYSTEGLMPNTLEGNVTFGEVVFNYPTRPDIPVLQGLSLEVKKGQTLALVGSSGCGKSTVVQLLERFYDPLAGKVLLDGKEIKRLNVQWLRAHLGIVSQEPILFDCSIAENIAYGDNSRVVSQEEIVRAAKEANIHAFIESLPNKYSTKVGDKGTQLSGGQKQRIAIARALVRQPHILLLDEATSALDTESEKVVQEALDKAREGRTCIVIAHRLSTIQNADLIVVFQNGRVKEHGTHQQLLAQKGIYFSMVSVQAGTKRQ

OCT1 = biological target: T4, OCT1 (Homo sapiens, UniProt O15245); assay: Transporter inhibition, HEK293 cells; type: in vitro ADME
T4 construct: expressed in transfected cells; host or cells: HEK293
T4 sequence (O15245 1-554): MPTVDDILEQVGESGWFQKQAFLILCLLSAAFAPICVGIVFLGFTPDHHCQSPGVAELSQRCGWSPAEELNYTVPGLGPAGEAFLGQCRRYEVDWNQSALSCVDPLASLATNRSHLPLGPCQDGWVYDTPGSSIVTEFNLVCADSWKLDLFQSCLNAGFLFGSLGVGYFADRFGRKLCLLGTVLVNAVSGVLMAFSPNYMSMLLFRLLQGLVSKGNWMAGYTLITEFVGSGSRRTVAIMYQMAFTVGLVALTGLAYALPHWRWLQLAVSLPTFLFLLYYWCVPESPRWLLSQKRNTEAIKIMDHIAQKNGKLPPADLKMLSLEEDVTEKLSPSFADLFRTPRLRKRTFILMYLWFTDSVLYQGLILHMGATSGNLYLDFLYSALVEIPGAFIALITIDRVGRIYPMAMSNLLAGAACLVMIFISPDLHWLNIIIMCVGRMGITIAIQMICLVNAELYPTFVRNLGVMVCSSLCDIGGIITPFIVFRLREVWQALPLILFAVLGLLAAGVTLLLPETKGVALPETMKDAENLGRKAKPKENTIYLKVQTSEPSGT

OCT2 = biological target: T5, OCT2 (Homo sapiens, UniProt O15244); assay: Transporter inhibition, HEK293 cells; type: in vitro ADME; details: [14C]-metformin (10 μM), 1 and 10 μM tested
T5 construct: expressed in transfected cells; host or cells: HEK293
T5 sequence (O15244 1-555): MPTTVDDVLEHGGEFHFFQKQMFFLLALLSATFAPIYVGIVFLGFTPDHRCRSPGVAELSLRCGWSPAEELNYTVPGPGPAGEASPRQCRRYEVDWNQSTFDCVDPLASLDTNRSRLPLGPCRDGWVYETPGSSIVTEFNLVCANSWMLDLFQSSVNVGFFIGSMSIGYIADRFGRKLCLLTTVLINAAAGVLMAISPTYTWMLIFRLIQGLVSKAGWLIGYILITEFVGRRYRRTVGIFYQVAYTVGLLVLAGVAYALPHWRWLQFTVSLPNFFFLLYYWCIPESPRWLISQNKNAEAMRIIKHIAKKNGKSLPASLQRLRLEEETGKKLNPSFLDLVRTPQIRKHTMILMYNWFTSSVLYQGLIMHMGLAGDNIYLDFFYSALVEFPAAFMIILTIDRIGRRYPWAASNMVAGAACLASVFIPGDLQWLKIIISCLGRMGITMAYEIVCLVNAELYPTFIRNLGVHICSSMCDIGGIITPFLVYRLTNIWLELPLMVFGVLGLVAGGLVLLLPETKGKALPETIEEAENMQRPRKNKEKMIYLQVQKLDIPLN

In the case of `O=C(O)C[C@H]1CCc2c1[nH]c1ccc(OCc3ccc(C4CCCC4)c(C(F)(F)F)c3)cc21` [Compound 1, (R)-2-(7-(4-cyclopentyl-3-(trifluoromethyl)benzyloxy)-1,2,3,4-tetrahydrocyclopenta[b]indol-3-yl)acetic acid], the “Metabolism-dependent inhibition of CYPs” value (CYP enzymes) is reported as “little or no evidence of metabolism-dependent inhibition”, the OATP1B1 inhibition (OATP1B1; 1 μM Compound 1) is reported as “no OATP1B1 inhibition” and the “Reduction of uptake rate of [3H]-estradiol-17β-glucuronide (50 nM) into OATP1B1-expressing cells” value (OATP1B1; 10 μM Compound 1) is reported as ~50%. The IC50 (MATE2-K; HEK293 cells, [14C]-metformin (10 μM), 1 and 10 μM tested) was > 10 µM, the “Inhibition of MATE2-K” value (MATE2-K; up to 10 μM) was “less than 50%” and the “Potential substrate of OAT1” value (OAT1; HEK293 cells) was “not a substrate of OAT1 and not a substrate and No”. For the same molecule, the “Uptake ratio into OAT1-expressing cells” value (OAT1; absence and presence of probenecid (100 μM)) was “less than two”, the IC50 (P-gp) was ~100 µM and the “Reduction of uptake rate of tetraethylammonium bromide into OCT1-expressing cells (inhibition)” value (OCT1; 1 and 10 μM) was “less than 50%”. For the same molecule, the IC50 (OCT1; HEK293 cells, [14C]-tetraethylammonium bromide (5 μM), 1 and 10 μM tested) was > 10 µM and the IC50 (OCT2) was > 10 µM.
